Data on one molecule can be found in patent publication US8669065B1, “Methods for identifying molecules that modulate lipid binding sites of ion channels” (priority 2011, dated 2014).

SMILES strings stand for the structures. In brackets after ≈: the same amount, converted by molar mass.

A short description of the series: physchem. The conditions noted are these: water. An excerpt:
Most native lipids have long fatty acyl side chains rendering them insoluble and difficult to work with in an aqueous environment.

A word on the solubility: it is the dissolved amount per volume that the medium holds. In turn, `CCCCCCCC(=O)OC[C@H](COP(=O)(O)O)OC(=O)CCCCCCC` [C8-PA] had a solubility of 50 mM (≈ 21.2 mg/mL).
